“Also recorded” adds a separate entry of the source.
Tests used:
[1] = tested on: GBM 031810 neurosphere cells; test: Antiproliferative effect on patient-derived GBM neurosphere culture; type: cell-based; conditions: Homo sapiens, average IC50 ± SD from three determinations, read-out: GI50 in vitro, GBM 031810 (average IC50)
Description: Given the ability of the hydroxamates to overcome drug resistance a few select compounds were further evaluated against glioma cells grown in neurosphere conditions, which are known to promote the growth of stem-like cells from human glioma tissue. Indeed, the neurospheres show the ability of self-renewal by regrowing in culture from individual cells, and can differentiate into multiple neural lineages and recapitulate human gliomas on both histological and genetic levels more faithfully than serum cultured glioma cell lines when injected into the brains of mice. Because, neurosphere cells are generally resistant to radiation and chemotherapy, the micromolar to submicromolar activity of the hydroxamates against the glioma neurosphere cell cultures is noteworthy (Table 4). […] It is worthy of note, that the unmethylated MGMT promoter leading to such temozolomide resistance is found in about half of all GBM patients, who respond poorly to temozolomide chemotherapy. To date, no alternative treatment exists for this group of patients.
Human cancer cell lines were obtained from the American Type Culture Collection (ATCC, Manassas, Va., USA), the European Collection of Cell Culture (ECACC, Salisbury, UK) and the Deutsche Sammlung von Mikroorganismen and Zellkulturen (DSMZ, Braunschweig, Germany). Human cervical adenocarcinoma HeLa cells were cultured in DMEM supplemented with 10% fetal bovine serum (FBS). Human mammary carcinoma MCF-7 cells were cultured in RPMI supplemented with 10% FBS. The U87 cells (ATCC HTB-14) were cultured in DMEM culture medium, while the A549 cells (DSMZ ACC107) were cultured in RPMI culture medium supplemented with 10% heat-inactivated FBS. The glioblastoma multiforme Hs683 (ATCC HTB-138) and the T98G (ATCC CRL-1690) cell lines were cultivated in DMEM supplemented with 10% FBS. The Human uterine sarcoma MES-SA and MES-SA/Dx5 cells were cultured in RPMI-1640 medium supplemented with 10% FBS with MES SA/Dx5 maintained in the presence of 500 nM Doxorubicin (Sigma). SKMEL-28 cells (ATCC HTB72) and U373 glioblastoma cells (ECACC 08061901) were cultured in RPMI culture medium supplemented with 10% heat-inactivated FBS. Cell culture media were supplemented with 4 mM glutamine (Lonza code BE17-605E), 100 μg/mL gentamicin (Lonza code 17-5182), and penicillin-streptomycin (200 units/ml and 200 μg/ml) (Lonza code 17-602E). Neurosphere culture GBM 031810 was established using known methods and maintained in Neurobasal medium (Invitrogen Carlsbad, Calif.) with B27 supplement (20 ul/ml; Invitrogen), Glutamax (10 ul/ml; Invitrogen), fibroblast growth factor-2 (20 ng/ml; Peprotech, Rocky Hill, N.J., USA), epidermal growth factor (20 ng/ml; Peprotech), heparin (32 IE/ml; Sigma Aldrich, St. Louis, Mo.), and penicillin-streptomycin (1×, Invitrogen). […]

[2] = tested on: HeLa cervical adenocarcinoma cells; test: MTT antiproliferative assay, HeLa; type: cell-based; conditions: Homo sapiens, Table 2, 48 h treatment, ± SD, read-out: cell viability GI50, HeLa
Description: (§1) This finding led to an exploration of the SAR analyses by synthesizing the first generation compounds 3 containing diverse substituents at different positions in the 2-aryl-2-(3-indolyl)acetohydroxamate skeleton and testing this series for in vitro growth inhibition using the MTT colorimetric assay against two cell lines, human HeLa cervical and MCF-7 breast adenocarcinomas (Table 1). It emerged from these experiments that the substitution on the benzene ring of the indole moiety (R^2≠H) was not tolerated (e.g., 3abfa and 3acfa), whereas the nitrogen could be derivatized (R^1≠H) with only a small activity drop (e.g., 3bafa vs 3aafa).
(§2) Human cancer cell lines were obtained from the American Type Culture Collection (ATCC, Manassas, Va., USA), the European Collection of Cell Culture (ECACC, Salisbury, UK) and the Deutsche Sammlung von Mikroorganismen and Zellkulturen (DSMZ, Braunschweig, Germany). Human cervical adenocarcinoma HeLa cells were cultured in DMEM supplemented with 10% fetal bovine serum (FBS). Human mammary carcinoma MCF-7 cells were cultured in RPMI supplemented with 10% FBS. The U87 cells (ATCC HTB-14) were cultured in DMEM culture medium, while the A549 cells (DSMZ ACC107) were cultured in RPMI culture medium supplemented with 10% heat-inactivated FBS. The glioblastoma multiforme Hs683 (ATCC HTB-138) and the T98G (ATCC CRL-1690) cell lines were cultivated in DMEM supplemented with 10% FBS. The Human uterine sarcoma MES-SA and MES-SA/Dx5 cells were cultured in RPMI-1640 medium supplemented with 10% FBS with MES SA/Dx5 maintained in the presence of 500 nM Doxorubicin (Sigma). SKMEL-28 cells (ATCC HTB72) and U373 glioblastoma cells (ECACC 08061901) were cultured in RPMI culture medium supplemented with 10% heat-inactivated FBS. Cell culture media were supplemented with 4 mM glutamine (Lonza code BE17-605E), 100 μg/mL gentamicin (Lonza code 17-5182), and penicillin-streptomycin (200 units/ml and 200 μg/ml) (Lonza code 17-602E). Neurosphere culture GBM 031810 was established using known methods and maintained in Neurobasal medium (Invitrogen Carlsbad, Calif.) with B27 supplement (20 ul/ml; Invitrogen), Glutamax (10 ul/ml; Invitrogen), fibroblast growth factor-2 (20 ng/ml; Peprotech, Rocky Hill, N.J., USA), epidermal growth factor (20 ng/ml; Peprotech), heparin (32 IE/ml; Sigma Aldrich, St. Louis, Mo.), and penicillin-streptomycin (1×, Invitrogen). Growth factors and heparin were renewed twice weekly. All cell lines were cultured in T25 flasks, maintained and grown at 37° C., 95% humidity, 5% CO2.
(§3) Antiproliferative properties of the synthesized compounds were evaluated by the MTT assay. All compounds were dissolved in DMSO at a concentration of either 100 mM or 50 mM prior to cell treatment. The cells were trypsinized and seeded at 4×10^3 cells per well into 96-well plates. The cells were grown for 24 h, treated with compounds at concentrations ranging from 0.001 to 100 μM and incubated for 48 h in 200 μL media. 20 μL of MTT reagent in serum free medium (5 mg/mL) was added to each well and incubated further for 2 h. Media was removed and the resulting formazan crystals were re-solubilized in 200 μL of DMSO. A490 was measured using a Molecular Devices Thermomax plate reader. The experiments were performed in quadruplicate and repeated at least twice for each compound per cell line. Cells treated with 0.1% DMSO were used as a negative control; 1 μM phenyl arsine oxide (PAO) was used as a positive control.

[3] = tested on: A549 non-small-cell-lung cancer cells; test: MTT antiproliferative assay, A549; type: cell-based, human; conditions: for GI50: Homo sapiens, A549, 48 h treatment, MTT, ± SD, read-out: GI50 in vitro, A549
Experimental: (§4) As part of the ongoing efforts aimed at identification of compounds active against cancer cells displaying resistance to proapoptotic agents, the selected 2-aryl-2-(3-indolyl)-acetohydroxamates were evaluated for in vitro growth inhibition against a panel of additional cancer cell lines including those resistant to various proapoptotic stimuli, such as human T98G and U87 glioblastoma and human A549 non-small-cell-lung cancer (NSCLC), as well as an apoptosis-sensitive tumor model, such as human Hs683 anaplastic oligodendroglioma, used as a reference. The data reveal that for the most part these compounds retain the single-digit antiproliferatve GI50 values in this challenging cancer cell panel.
as §2, §3

[4] = tested on: HeLa cervical and MCF-7 breast adenocarcinomas; test: In vitro growth inhibition (MTT); type: cell-based, human; conditions: HeLa and MCF-7
Description: as §1, §3

U87 glioblastoma cells = test: MTT antiproliferative assay, U87; type: cell-based, human; conditions: for GI50: Homo sapiens, 48 h treatment, MTT, ± SD, read-out: GI50 in vitro, U87
Experimental: as §4, §2, §3

[5] = tested on: MCF-7 breast adenocarcinoma cells; test: MTT antiproliferative assay, MCF-7; type: cell-based; conditions: Homo sapiens, MCF7, Table 2, 48 h treatment, ± SD, read-out: cell viability GI50, MCF7
Description: as §1, §2, §3

T98G glioblastoma cells = test: MTT antiproliferative assay, T98G; type: cell-based; conditions: Homo sapiens, 48 h treatment, ± SD, read-out: GI50 in vitro, T98G
Experimental: as §4, §2, §3

[6] = tested on: MES-SA/Dx5 MDR uterine sarcoma cells; test: MTT antiproliferative assay, MDR MES-SA/Dx5; type: cell-based, human; conditions: Homo sapiens, MES-SA/Dx5; 48 h treatment, MTT, ± SD; MDR line; read-out: GI50 in vitro, MES-SA/Dx5
Experimental: (§5) Compared with the intrinsic drug resistance, as described above for such cancers as glioblastoma and melanoma, a large variety of tumors can also develop resistance to anticancer drugs resulting in MDR as explained previously. To assess whether the hydroxamates can overcome this resistance mechanism, selected hydroxamates were tested against MDR cells (Table 4). The MDR uterine sarcoma cell line MES-SA/Dx5 was utilized for this experiment. This cell line was established from the parent uterine sarcoma MES-SA, grown in the presence of increasing concentrations of doxorubicin and known to be resistant to a number of P-gp substrates.
as §2, §3
Selection of the MES-SA/Dx5 cell line was done according to W. G. Harker and B. I. Sikic, Cancer Res. 1985, p. 45, 4091. The cells were split and allowed to adhere overnight. […] The cells were maintained at this DOX concentration until their growth rate reached that of the untreated cells.

[7] = tested on: MES-SA uterine sarcoma cells; test: MTT antiproliferative assay, MES-SA; type: cell-based; conditions: Homo sapiens, 48 h treatment, ± SD, read-out: GI50 in vitro, MES-SA
Experimental: as §5, with “substrates. […] In contrast, there was only a small variation in the sensitivities of the two cell lines towards the hydroxamates indicating their potential to overcome clinical multi-drug resistance.” for “substrates.”
as §2, §3

[8] = tested on: Hs683 anaplastic oligodendroglioma cells; test: MTT antiproliferative assay, Hs683; type: cell-based; conditions: Homo sapiens, Hs 683, 48 h treatment, ± SD, apoptosis-sensitive reference, read-out: GI50 in vitro, Hs683
Experimental: as §4, §2, §3

[9] = FIG. 3, increasing concentration

Structure (SMILES) | GI50 [2] [µM] | GI50 [3] [µM] | antiproliferative potency (GI50) [4] | GI50 (U87 glioblastoma cells) [µM] | GI50 [5] [µM] | GI50 (T98G glioblastoma cells) [µM] | GI50 [6] [µM] | GI50 [7] [µM] | GI50 [8] [µM] | IC50 [1] [µM] | activity against cell populations resistant to proapoptotic agents, A549 [3, 9] | activity against cell populations resistant to proapoptotic agents, U87 (U87 glioblastoma cells; [9])
Cn1nnc2c(C(N)=O)ncn2c1=O [Temozolomide, reference compound] | – | – | – | – | – | – | – | – | – | > 1000 | – | –
Cc1ccc(C(C(=O)NO)c2c(-c3ccc4ccccc4c3)[nH]c3ccccc23)cc1C (centres unmarked) [Compound 3aafk] | 2.7 ± 0.1 | 2.9 ± 0.6 | single-digit micromolar | 6.7 ± 1.5 | 2.5 ± 0.1 | 7.5 ± 0.8 | 2.2 ± 0.8 | 1.8 ± 0.4 | 4.7 ± 1 | – | – | –
CC(C)c1ccc(C(C(=O)NO)c2c(-c3ccc4ccccc4c3)[nH]c3ccccc23)cc1 (centres unmarked) [Compound 3aafe] | 0.68 ± 0.04 | 3.3 ± 0.6 | single-digit micromolar; also recorded: submicromolar | 5 ± 0.5 | 1.4 ± 0.1 | 8.8 ± 0.5 | 4.9 ± 1.9 | 1.7 ± 0.4 | 6.1 ± 1 | 3.4 ± 0.7 | – | –
CN(C)c1ccc(C(C(=O)NO)c2c(-c3ccc4ccccc4c3)[nH]c3ccccc23)cc1 (centres unmarked) [Compound 3aafp] | 0.6 ± 0.02 | 1.5 ± 0.3 | single-digit micromolar; also recorded: submicromolar | 21.3 ± 1.6 | 1.1 | 1.9 ± 0.2 | 1.6 ± 0.6 | 0.8 ± 0.1 | 5.1 ± 0.5 | 5.6 ± 0.8 | potent growth inhibitory properties against most of the cells | potent growth inhibitory properties against most of the cells

Now from value to compound, other results behind:

GI50 [2] [µM] | GI50 [3] [µM] | antiproliferative potency (GI50) [4] | GI50 (U87 glioblastoma cells) [µM] | GI50 [5] [µM] | GI50 (T98G glioblastoma cells) [µM] | GI50 [6] [µM] | GI50 [7] [µM] | GI50 [8] [µM] | Structure (SMILES) | IC50 [1] [µM] | activity against cell populations resistant to proapoptotic agents, A549 [3, 9] | activity against cell populations resistant to proapoptotic agents, U87 (U87 glioblastoma cells; [9])
5.4 ± 0.3 | 5.8 ± 0.8 | single-digit micromolar | 9.1 ± 0.3 | 5.5 ± 0.2 | 10.6 ± 0.4 | 8.5 ± 0.9 | 7.1 ± 0.1 | 11.2 ± 0.9 | O=C(NO)C(c1ccccc1)c1c(-c2ccc3ccccc3c2)n(Cc2ccccc2)c2ccccc12 (centres unmarked) [Compound 3eafa] | – | – | –
5.6 ± 0.3 | 5.7 ± 0.5 | single-digit micromolar | 6.7 ± 0.3 | 7.8 ± 0.6 | 12.3 ± 0.8 | 2.7 ± 0.3 | 5.9 ± 1.7 | 10.8 ± 0.5 | CCCCn1c(-c2ccc3ccccc3c2)c(C(C(=O)NO)c2ccccc2)c2ccccc21 (centres unmarked) [Compound 3cafa] | – | – | –
